{"source": "patent US12214036B2", "about": "“Combination therapy comprising AXL/MER and PD-1/PD-L1 inhibitors” (Incyte Corporation, priority 2020, dated 2025)", "key": {"CTG-1861 tumors": {"tested_on": "CTG-1861 tumors", "experiment": "PDX model CTG-1861 (gastrointestinal stromal tumor)", "assay_type": "in vivo", "conditions": "athymic nude mice", "from_the_text": "MBT-2 cells were obtained from the Japanese Collection of Research Bioresources Cell Bank and were maintained in DMEM supplemented with 10% FBS. MC38 cells were obtained from the NCI. 4T1 cells were obtained from ATCC and maintained in RPMI media supplemented with 10% FBS. For MBT-2 experiments, 5×10^5 MBT-2 cells were inoculated subcutaneously into the right hind flank of 6- to 8-week-old C3H mice or athymic nude mice (Charles River Laboratories, Wilmington, Mass.). For MC38 studies, 12-week old female C57BL/6 mice were inoculated with brei of MC38 tumors (in-vivo passage 6) into the right hind flank. For 4T1 studies, 7.5×10^5 4 T1 cells were inoculated subcutaneously into the right hind flank of 6- to 8-week-old female BALB/c mice or athymic nude mice (Charles River Laboratories). […] Mice were monitored for tumor growth and overt tolerability over the course of the experiment. […] Tumor volume was calculated using the formula (L×W^2)/2, where L and W refer to the length and width dimensions, respectively. Tumor growth inhibition (TGI) was calculated using the formula (1−(VT/VC))×100, where VT is the tumor volume of the treatment group on the last day of treatment, and VC is the tumor volume of the control group on the last day of treatment. […]\nThe activity of Compound 1 in sarcoma PDX models was evaluated as described in Example H for PDX models. […] Three mice per group were analyzed. […]"}, "TYRO3": {"target": "T1, TYRO3 (Homo sapiens, UniProt Q06418)", "T1 construct": "recombinant phosphorylated forms of the kinase domains for AXL, MER and TYRO3; purchased Life Technologies PR7480A", "T1 sequence (Q06418 518-790 limits assumed)": "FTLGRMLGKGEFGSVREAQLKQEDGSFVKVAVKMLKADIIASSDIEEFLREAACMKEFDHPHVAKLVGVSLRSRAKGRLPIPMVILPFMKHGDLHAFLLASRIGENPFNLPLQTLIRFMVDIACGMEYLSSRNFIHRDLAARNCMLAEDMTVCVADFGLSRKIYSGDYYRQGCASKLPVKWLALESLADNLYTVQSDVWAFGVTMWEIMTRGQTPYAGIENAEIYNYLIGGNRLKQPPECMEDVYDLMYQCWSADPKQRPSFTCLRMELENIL", "experiment": "TR-FRET kinase assay, TYRO3", "assay_type": "biochemical", "experimental": "The biochemical potency of Compound 1 to inhibit the enzymatic activity of TAM family members was investigated by TR-FRET assays using recombinant phosphorylated forms of the kinase domains for AXL, MER and TYRO3.\nPhospho-AXL (pAXL), cMER and Tyro3 kinase activities were measured by time-resolved fluorescence energy transfer (TR-FRET) assays. Autophosphorylation of AXL was carried out before the kinase assay by incubating the recombinant AXL protein (ThermoFisher Scientific; #PV4275) in buffer containing 50 mM Tris, pH 7.5, 0.2 mg/mL AXL, 5 mM ATP, 20 mM MgCl2 and 2 mM dithiothreitol (DTT) at room temperature for 1 hour. The kinase assay buffer contained 50 mM HEPES, pH 7.5, 10 mM MgCl2, 1 mM EGTA, 0.01% NP-40 and 2 mM DTT. Enzyme solutions of 0.69 nM phospho-AXL, or 0.088 nM cMER (Carna Biosciences, Kobe, Japan; #08-108) or 0.137 nM TYRO3 (Life Technologies, PR7480A) were prepared in assay buffer. […] The plate was incubated for 30 minutes at room temperature, and homogenous time resolved fluorescence (HTRF) signal was measured on a PheraStar FS plate reader (BMG Labtech, Ortenberg, Germany). Percent inhibition was calculated for each concentration, and half maximal inhibitory concentration (IC50) value was generated from curve fitting with GraphPad Prism software (San Diego, Calif.)."}}, "data": [{"smiles": "CC(C)C(=O)N1CCC(c2cc(-c3ccc(NC(=O)c4cn(C(C)C)c(=O)n(-c5ccccn5)c4=O)cc3)c3c(N)ncnn23)CC1", "note": "[Compound 1, N-(4-(4-Amino-7-(1-isobutyrylpiperidin-4-yl)pyrrolo[1,2-f][1,2,4]triazin-5-yl)phenyl)-1-isopropyl-2,4-dioxo-3-(pyridin-2-yl)-1,2,3,4-tetrahydropyrimidine-5-carboxamide]", "values": [{"measurement": "TGI (%)", "setting": "CTG-1861 tumors", "value": 74, "unit": "%"}, {"measurement": "IC50", "setting": "TYRO3; average from multiple lots, n=25, read-out: IC50 against TYRO3", "value": "101 ± 27", "unit": "nM"}, {"measurement": "selectivity over TYRO3", "setting": "TYRO3; biochemical", "value": "approximately 30 fold"}]}]}
